Results from US20220009987A9, “HUMAN RESISTIN COMPOSITIONS AND METHODS OF TREATING TLR4-MEDIATED DISEASE AND INFECTION” (THE REGENTS OF THE UNIVERSITY OF CALIFORNIA, priority 2017, published 2022).

Columns and labels:
[1] = tested on: human PBMCs; assay: Human PBMC functional assay, LPS-induced cytokine secretion (ELISA); type: cell-based; details: human PBMC, pre-treatment then LPS 100 ng/mL
Experimental: (§1) Human PBMCs. Human buffy coat was purchased from Zen-bio. Buffy coat was overlaid on top of Histopaque-1077 and spun at 700g at 25° C. with no brake and PBMCs were recovered from the interphase. PBMCs were plated in 96-well plates and stimulated with mammalian-derived human resistin (1 μg/mL, LifeSpan Biosciences) or hRetn N-peptide (1 μg/mL). After 24 hours, ultrapure LPS (100 ng/mL, Invivogen) was added and supernatants recovered for ELISA at 24 hours. Where indicated, cells were incubated for 4 hours with STAT3 (5, 15-DPP, 50 μM) or TBK1 (BX-795, 1 μM) inhibitors prior to hRetn treatment. For the hRetn competitive binding assay, 1×10^6 cells were incubated with recombinant hRetn (0.5 μg), washed in PBS then incubated with 0.5 μg LPS-biotin (incubations were 30 minutes on ice). Cells were washed in FACS buffer, treated with Fc block, and stained with BV605-conjugated streptavidin and α-human primary antibodies: CD14 (clone M5E2), CD11 b (clone M1/70) and MD2/TLR4 (clone HTA125) purchased from Affymetrix.
Cytokine Quantification. Sandwich ELISAs were performed using capture and biotinylated antibodies for human resistin (Peprotech), IL-10 and TNFα (BD Biosciences) according to manufacturer's instructions. Detection was performed with streptavidin-peroxidase (Jackson ImmunoResearch) and TMB peroxidase substrate (BD Biosciences), followed by addition of 2N H2SO4. Optical density (OD) was captured at 450 nm. Samples were compared to serial-fold dilution of recombinant protein. For Luminex, inflammatory cytokine kits (Affymetrix) were run according to manufacturer's instructions and quantified on Luminex MagPix (Luminex Corp.). For cytokine bead array, cytokine kits from BD Bioscience were run according to manufacturer's instructions on BD LSRII and analyzed using FCAP Array Software.

[2] = biological target: human TLR4 (Homo sapiens, UniProt O00206); assay: Pull-down assay with His-tagged human TLR4; type: binding; details: pre-incubation of His-TLR4 with 500 ng/ml N-peptide, anti-Flag blot
Experimental: Pull-down Assay. 1 μg/ml protein His-tagged MBP, human TLR4 and human CAP1 were added to nickel-nitrilotriacetic acid-agarose beads (Invitrogen) in binding buffer (50 mM NaH2PO4, 500 mM NaCl, 10 mM Imidazole, pH 8.0) and mixed for 1 hour at 4° C., followed by washing and 1 h incubation at 4° C. with hRetn (E. coli-derived, Peprotech or 293T cell-derived, LifeSpan Biosciences) in binding buffer. Beads were washed in wash buffer (50 mM NaH2PO4, 500 mM NaCl, 20 mM Imidazole, pH 8.0), and complex protein eluted with elution buffer (50 mM NaH2PO4, 500 mM NaCl, 250 mM Imidazole, pH 6.0). His-MBP, His-TLR4 and His-CAP1 were detected by anti-His antibody (Abcam), and hRetn was detected by anti-hRetn antibody (donated by Mitchell Lazar) by Western Blot. For the N-peptide binding experiment, 1 μg/ml His-tagged human TLR4 with 500 ng/ml N-peptide or 10% TFE control was added to the beads in binding buffer and mixed for 30 min at 4° C., followed by co-immunoprecipitation using 1 μg/ml Flag-hRetn (LifeSpan Biosciences), anti-His or anti-Flag (Sigma).

[3] = tested on: CD14+CD11b+ monocytes; assay: Competitive resistin/LPS binding assay on human PBMCs (flow cytometry); type: cell-based; details: for LPS binding to CD14+CD11b+ monocytes: pre-incubation before LPS-biotin, on ice
Experimental: as §1

Chain of human TLR4 (O00206 24-839): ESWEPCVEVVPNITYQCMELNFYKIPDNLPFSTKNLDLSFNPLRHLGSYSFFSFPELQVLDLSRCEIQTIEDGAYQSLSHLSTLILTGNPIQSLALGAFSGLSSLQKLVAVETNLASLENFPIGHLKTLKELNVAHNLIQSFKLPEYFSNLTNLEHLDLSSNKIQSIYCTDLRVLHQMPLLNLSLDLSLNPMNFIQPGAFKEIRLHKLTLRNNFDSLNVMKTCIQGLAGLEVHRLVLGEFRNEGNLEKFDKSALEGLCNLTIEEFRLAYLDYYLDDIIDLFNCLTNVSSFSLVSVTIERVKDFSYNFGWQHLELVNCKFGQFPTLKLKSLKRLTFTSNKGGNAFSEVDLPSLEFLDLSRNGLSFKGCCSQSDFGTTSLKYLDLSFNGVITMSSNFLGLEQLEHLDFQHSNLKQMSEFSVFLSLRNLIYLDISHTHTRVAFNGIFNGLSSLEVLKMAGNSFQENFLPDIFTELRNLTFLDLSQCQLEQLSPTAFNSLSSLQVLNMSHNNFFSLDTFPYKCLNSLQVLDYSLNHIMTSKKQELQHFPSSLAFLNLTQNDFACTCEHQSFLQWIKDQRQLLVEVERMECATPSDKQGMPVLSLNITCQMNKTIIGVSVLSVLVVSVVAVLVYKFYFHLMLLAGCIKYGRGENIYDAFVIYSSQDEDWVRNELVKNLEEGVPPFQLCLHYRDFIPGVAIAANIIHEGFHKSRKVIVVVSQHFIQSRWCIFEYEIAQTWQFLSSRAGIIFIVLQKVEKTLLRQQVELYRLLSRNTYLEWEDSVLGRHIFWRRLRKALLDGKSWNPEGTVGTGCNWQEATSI

Row | Compound | LPS-induced TNFα secretion [1] | competitive inhibition of Flag-tagged full-length hRetn binding to hTLR4 [2] | LPS-promoted surface MD2/TLR4 complex formation ([3]; human PBMC, flow cytometry) | LPS binding to CD14+CD11b+ monocytes [3] | LPS binding to CD14+CD11b+ monocytes ([3]; listed as N-pep) | IL-10 expression after LPS [1]
1 | hRetn N-peptide: synthesized hRetn N-terminal peptide (1-23 a.a.), SEQ ID NO: 2 (MEEAINERIQEVAGSLIFRAISS) (listed as Homo sapiens) | significantly more efficient at suppressing LPS-induced TNFα than full-length hRetn | sufficient to abrogate binding of full-length hRetn | abrogated | inhibited LPS binding | abrogated the binding of LPS in human PMBCs similar to full-length hRetn | –
2 | O=C(NCCCNc1nc(Nc2cccc(NC(=O)N3CCCC3)c2)ncc1I)c1cccs1 [TBK1 inhibitor, BX-795, reference compound] | significantly reduced LPS-induced TNFα | – | – | – | – | increased IL-10 expression
